Measurements from patent US10654925B2, “Anti-marinobufagenin antibodies and uses thereof” (priority 2018, dated 2020).
Marks after values point to notes of the source that are not given here.

Legend:
human CTB cells = format: cell-based
Na^+K^+-ATPase (NKA) = assay: Na^+K^+-ATPase activity (Malachite Green Phosphate Assay); format: biochemical, rat; settings: NKA from rat heart (SLP fraction); Pi read as OD 630 nm; FIG. 4
Description: Na^+K^+-ATPase (NKA) was purified from rat heart. The NKA was collected as the sarcolemmal/particulate (SLP) fraction and frozen.
Na^+K^+-ATPase activity was measured as follows: aliquots of SLP were mixed with Reaction Buffer (200 mM Tris-HCl, pH 7.5, 200 mM NaCL, 30 mM MgCl2, 60 mM KCl, 10 mM EGTA, 100 μg/mL PMSF, 2 μg/mL pepstatin A, and 2 μg/mL aprotinin). Reactions were performed with or without MBG and with or without anti-MBG antibodies (1-100 μg/mL). Ouabain was used as positive control for NKA inhibition. Tubes were prewarmed, and ATP was added. Reactions were stopped and were placed on ice.
Phosphate was assayed using the Malachite Green Phosphate Assay. Phosphate standard or sample was added to each well of a 96-well plate, followed by Reagent A. Reagent B was added, with mixing and incubation. OD was then read at 630 nm in a microplate spectrophotometer.

[1] = tested on: PKC-δ in the nucleus of primary rat cardiac fibroblasts; assay: Inhibition of MBG-induced PKC-δ nuclear translocation (Western blot); settings: MBG at 2 nM
Description: MBG was incubated with an anti-MBG antibody prior to addition to cultured primary rat cardiac fibroblasts. Nuclei were isolated 30 min later and analyzed for amount of PKC-6.

[2] = tested on: pregnant Sprague-Dawley rats; assay: DOCA/saline rat model of pre-eclampsia; format: in vivo; settings: antibodies 2.2 mg/kg/d i.p. days 16-18 in PDS rats
Description: Female Sprague-Dawley rats (200-250 g, Charles River Laboratories) were acclimatized for 1 week, and mated with male Sprague-Dawley rats (275-300 g). Pregnancy was confirmed by the presence of vaginal plugs or by examination of vaginal smears. Each rat was housed separately.
Five groups of rats were studied (n=10 per group): Group 1 (NP): normal pregnant rats; Group 2 (PDS): pregnant rats injected i.p. initially with 12.5 mg of DOCA in a depot form, followed by a weekly i.p. injection of 6.5 mg of DOCA, and whose drinking water is replaced with 0.9% saline; Group 3 (NPM): Normal pregnant rats given daily injections of MBG (7.65 μg per kg body weight per day) once pregnancy was established on day four of the experiment; Group 4 (PDS-3E9): rats administered DOCA and saline as for Group 2, and also given the murine anti-MBG antibody 3E9 (2.2 mg per kg body weight per day) on days 16, 17, and 18 of pregnancy; and Group 5 (PDS-H3L2): rats administered DOCA and saline as for Group 2, and also given the humanized anti-MBG antibody H3L2 (2.2 mg per kg body weight per day) on days 16, 17, and 18 of pregnancy.
Systolic blood pressure (BP) was measured by tail cuff at days 17-19. At least 3 readings are taken after BP has stabilized, and the mean of these values was calculated. The reported BP values are the mean of the daily measurements. At 18-20 days of pregnancy, 24-hour urine was collected in the absence of food to avoid contamination of the measurement of the protein amount in urine by any fallen food particles. Each rat was housed separately in a metabolic cage during this portion of the study. The 24-hour protein excretion was measured and was normalized to creatinine. The rats were sacrificed after the last measurement on days 18-20, and blood samples were taken. The number of fetal pups was counted and examined. The mean number of pups and any developmental or histological abnormalities in the pups were assessed. Statistical analysis was performed using analysis of variance and Tukey's post hoc test. A p value ≤0.05 was considered statistically significant.

[3] = tested on: pregnant Sprague-Dawley rats; assay: DOCA/saline rat model of pre-eclampsia; format: in vivo; settings: tail cuff; baseline; antibodies 2.2 mg/kg/d i.p. days 16-18 in PDS (DOCA/saline) rats; MBG 7.65 μg/kg/d in normal pregnant rats (NPM); N = 10

SMILES: C[C@]12CC[C@H](O)C[C@@]1(O)CC[C@@H]1[C@@H]2CC[C@]2(C)[C@@H](c3ccc(=O)oc3)C[C@H]3O[C@]132 [MBG, marinobufagenin]
- PCNA expression, MBG compared to vehicle (DMSO) (human CTB cells): significantly downregulated
- phosphorylation of p38 MAPK, MBG compared to vehicle (DMSO) (human CTB cells): increased
- secretion of P1GF, MBG compared to vehicle (DMSO) (human CTB cells): significantly reduced
- secretion of VEGF, MBG compared to vehicle (DMSO) (human CTB cells): significantly reduced
- secretion of sEng, MBG compared to vehicle (DMSO) (human CTB cells): significantly increased
- secretion of sFlt1, MBG compared to vehicle (DMSO) (human CTB cells): significantly increased
- inhibition of NKA activity (Na^+K^+-ATPase (NKA)): inhibit the NKA activity significantly
- amount of PKC-δ in the nucleus, MBG alone compared to Control (vehicle) [1]: induced an increase
- % Malformed Pups ([2]; MBG 7.65 μg/kg/d in NPM rats): 18 * %
- No. Pups ([2]; MBG 7.65 μg/kg/d in NPM rats): 9.5 ± 1.3
- Urine Protein ([2]; normalized to creatinine, 18-20 days of pregnancy, MBG 7.65 μg/kg/d in NPM rats): 6.4 ± 1.8 mg/24 h
- Blood Pressure-Final ([2]; tail cuff, 17-19 d of gestation, MBG 7.65 μg/kg/d in normal pregnant rats (NPM), N = 10): 137 ± 5 mm Hg
- Blood Pressure-Initial [3]: 104 ± 4 mm Hg
